Data as given in patent US20180244895A1, “ANTIMICROBIAL AND ANTIVIRAL COMPOSITE POLYMER SURFACES” (YEDITEPE UNIVERSITESI, priority 2015, published 2018).
Read-outs that look alike come from different tables or passages of the source.

Experiments:
[1] = test system: Vancomycin-resistant Enterococcus (VRE); assay: Modified disc diffusion method, boron compounds; format: cell-based; design: key: + sign indicates that the boron compounds had antimicrobial activity.; − sign indicates that there is no antimicrobial activity; conditions: disc immersed in pulverized compound; 36±1° C., 24 hours
[2] = test system: Methicillin-resistant Staphylococcus aureus (MRSA); assay: Modified disc diffusion method, boron compounds; format: cell-based; design: key: + sign indicates that the boron compounds had antimicrobial activity.; − sign indicates that there is no antimicrobial activity; conditions: disc immersed in pulverized compound; 36±1° C., 24 hours
Escherichia coli = assay: Modified disc diffusion method, boron compounds; format: cell-based; design: key: + sign indicates that the boron compounds had antimicrobial activity.; − sign indicates that there is no antimicrobial activity; conditions: disc immersed in pulverized compound; 36±1° C., 24 hours
Staphylococcus aureus = assay: Modified disc diffusion method, boron compounds; format: cell-based; design: key: + sign indicates that the boron compounds had antimicrobial activity.; − sign indicates that there is no antimicrobial activity; conditions: disc immersed in pulverized compound; 36±1° C., 24 hours
Pseudomonas aeruginosa = assay: Modified disc diffusion method, boron compounds; format: cell-based; design: key: + sign indicates that the boron compounds had antimicrobial activity.; − sign indicates that there is no antimicrobial activity; conditions: disc immersed in pulverized compound; 36±1° C., 24 hours
Candida albicans = assay: Modified disc diffusion method, boron compounds; format: cell-based; design: key: + sign indicates that the boron compounds had antimicrobial activity.; − sign indicates that there is no antimicrobial activity; conditions: disc immersed in pulverized compound; 36±1° C., 48 hours
Candida glabrata = assay: Modified disc diffusion method, boron compounds; format: cell-based; design: key: + sign indicates that the boron compounds had antimicrobial activity.; − sign indicates that there is no antimicrobial activity; conditions: disc immersed in pulverized compound; 36±1° C., 48 hours
Aspergillus spp. = assay: Modified disc diffusion method, boron compounds; format: cell-based; design: key: + sign indicates that the boron compounds had antimicrobial activity.; − sign indicates that there is no antimicrobial activity; conditions: disc immersed in pulverized compound; 25±1° C., 72 hours
Fusarium oxysporum = assay: Modified disc diffusion method, boron compounds; format: cell-based; design: key: + sign indicates that the boron compounds had antimicrobial activity.; − sign indicates that there is no antimicrobial activity; conditions: disc immersed in pulverized compound; 25±1° C., 72 hours
Botrytis cinerea = assay: Modified disc diffusion method, boron compounds; format: cell-based; design: key: + sign indicates that the boron compounds had antimicrobial activity.; − sign indicates that there is no antimicrobial activity; conditions: disc immersed in pulverized compound; 25±1° C., 72 hours
Penicillium spp. = assay: Modified disc diffusion method, boron compounds; format: cell-based; design: key: + sign indicates that the boron compounds had antimicrobial activity.; − sign indicates that there is no antimicrobial activity; conditions: disc immersed in pulverized compound; 25±1° C., 72 hours
[3] = test system: Human adenovirus type 5 Adenoid 75 strain; format: cell-based
[4] = test system: poliovirus type 1 Chat strain; format: cell-based
Herpesvirus hominis = conditions: 0.02% chlorhexidine gluconate, 90-minute exposure at room temperature; cited from earlier work
poliovirus = conditions: 0.02% chlorhexidine gluconate, 90-minute exposure at room temperature; cited from earlier work
adenovirus = conditions: 0.02% chlorhexidine gluconate, 90-minute exposure at room temperature; cited from earlier work
[5] = ingestion of 30 mg twice daily for three weeks; cited from earlier work
enteric bacteria = conditions: cited from earlier work
[6] = test system: various bacterial strains; conditions: 0.02% chlorhexidine solution, 10-minute exposure; cited from earlier work
[7] = test system: humanrhinovirus, coxsackievirus and mengovirus; conditions: binds with ions of metals such as zinc; cited from earlier work
[8] = test system: P. aeruginosa NCIMB 10548; conditions: cited from earlier work
E. coli NCIMB 10000 = conditions: cited from earlier work
Pityrosporum ovale = conditions: cited from earlier work
[9] = test system: Saccharomyces cerevisiae yeast; conditions: cited from earlier work
[10] = 60 minutes, clean medium, 20° C.

Molecule	Antimicrobial activity (inhibition zone) [1]	Antimicrobial activity (inhibition zone) [2]	Antimicrobial activity (inhibition zone) (Escherichia coli)	Antimicrobial activity (inhibition zone) (Staphylococcus aureus)	Antimicrobial activity (inhibition zone) (Pseudomonas aeruginosa)	Antimicrobial activity (inhibition zone) (Candida albicans)	Antimicrobial activity (inhibition zone) (Candida glabrata)	Antimicrobial activity (inhibition zone) (Aspergillus spp.)	Antimicrobial activity (inhibition zone) (Fusarium oxysporum)	Antimicrobial activity (inhibition zone) (Botrytis cinerea)	Antimicrobial activity (inhibition zone) (Penicillium spp.)	further results
O.O.O.O.O.[Na+].[Na+].[O-]B1OB2OB([O-])OB(O1)O2 [BP, Borax pentahydrate]	+	+	+	+	+	+	+	+	+	+	+	–
N=C(NCCCCCCNC(=N)NC(=N)Nc1ccc(Cl)cc1)NC(=N)Nc1ccc(Cl)cc1.O=C(O)[C@H](O)[C@@H](O)[C@H](O)[C@H](O)CO.O=C(O)[C@H](O)[C@@H](O)[C@H](O)[C@H](O)CO [Chlorhexidine Gluconate, Chlorhexidine gluconate]	–	–	–	–	–	–	–	–	–	–	–	Reduction ratio in virus titer [3]: 4.0 Logarithmic TCID50 ratio; Virus titer with disinfectant [3]: 1.5 Logarithmic TCID50; reduction in virus titer [3]: at least 4 log; Reduction ratio in virus titer ([3]; 1 minute, clean medium, 20° C.): 4.0 Logarithmic TCID50 ratio; Virus titer with disinfectant ([3]; 1 minute, clean medium, 20° C.): 1.5 Logarithmic TCID50; Reduction ratio in virus titer [3, 10]: 4.0 Logarithmic TCID50 ratio; Virus titer with disinfectant [3, 10]: 1.5 Logarithmic TCID50; active against virus ([3]; used directly without being diluted, 20° C., 1 and 60 minute application periods): 99.9%; Virus titer with disinfectant [4]: 2.0 Logarithmic TCID50; reduction in virus titer [4]: at least 4 log; reduction of virus titration (Herpesvirus hominis): more than 99%; activity against virus (poliovirus): ineffective; activity against virus (adenovirus): ineffective
O.O.O.O.O=BOB1OB(OB=O)OB2OB([O-])OB([O-])OB(O1)O2.[Na+].[Na+] [DOT, Disodium octaborate tetrahydrate]	+	+	+	+	+	+	+	+	+	+	+	–
O.O.O.O.O.O.O.O.O.O.[Na+].[Na+].[O-]B1OB2OB([O-])OB(O1)O2 [SB, Sodium Borate]	+	+	+	+	+	+	+	+	+	+	+	–
O.O.O.O.[Na+].[O-]B1OO1 [SPT, Sodium perborate tetrahydrate]	+	+	+	+	+	+	+	+	+	+	+	–
O=BOB(O)OB(O)OB=O [borax, borax (Na2B4O7 10 H2O)]	–	–	–	–	–	–	–	–	–	–	–	effect on rheumatism [5]: substantially alleviated rheumatism
OB(O)O [boric acid]	–	–	–	–	–	–	–	–	–	–	–	antibacterial activity (enteric bacteria): has antibacterial activity
[H]/N=C(\N/C(=N/[H])NCCCCCCNC(=N)NC(=N)Nc1ccc(Cl)cc1)Nc1ccc(Cl)cc1 [chlorhexidine]	–	–	–	–	–	–	–	–	–	–	–	inhibition of microorganisms [6]: 4 log
CC(C)c1cccc(=O)c(O)c1 [hinokitiol]	–	–	–	–	–	–	–	–	–	–	–	inhibition of virus proliferation [7]: inhibited proliferation
Zinc borate [ZB]	+	+	+	+	+	+	+	+	+	+	+	–
Zinc pyrithione	–	–	–	–	–	–	–	–	–	–	–	Reduction ratio in virus titer [3]: 4.0 Logarithmic TCID50 ratio; Virus titer with disinfectant [3]: 1.0 Logarithmic TCID50; active against virus [3]: 99.9%; reduction in virus titer [3]: at least 4 log; Reduction ratio in virus titer [4]: 4.5 Logarithmic TCID50 ratio; Virus titer with disinfectant [4]: 1.5 Logarithmic TCID50; reduction in virus titer [4]: at least 4 log; MIC value [8]: 13 µg/mL; MIC value (E. coli NCIMB 10000): 4.5 µg/mL; antifungal activity (Pityrosporum ovale): has antifungal activity; antiyeast activity [9]: has antiyeast activity
